From PMC5518105, “Identification and characterization of the antiplasmodial activity of Hsp90 inhibitors” (Malaria Journal, 2017)
Entries after “also recorded” stand apart in the source; their conditions may differ. Where two headings read alike, the source gives them in different places. Blank lines part the entries; values can stand above or below the molecule they belong to.

Key:
P. falciparum W2 [1] = assay: Recrudescence assay, W2; assay type: cell-based, Plasmodium falciparum; conditions: for recovery time in combination with DHA vs DHA alone: W2, 48 h, two concentrations plus DHA 100 nM; for delay of culture recovery vs untreated control (cytocidal activity): W2, 48 h exposure, 17-AAG 1.5-6 µM, 17-DMAG 0.3-1.2 µM, NVP-AUY922 0.18-0.72 µM
Description: (§1) The assay is a modification of the previously reported bulk recrudescence assay. […] […] After drug exposure, the medium containing the drug was removed and the cultures were washed twice with compound-free media, and resuspended in RPMI to adjust haematocrit to 5%. The medium was changed every day and red blood cells were added every 2 days to adjust the haematocrit. The cultures were monitored daily until they reached 10% parasitaemia, which represented the end point of the experiment. Culture parasitaemia was determined by scoring >2000 erythrocytes in Giemsa-stained thin blood films as parasitized or not. The median number of days to reach this level of parasitaemia was reported for all the experiments. All experiments were conducted in triplicate; each replica was conducted on different days. The differences in the recovery times between control cultures to those exposed to Hsp90 inhibitors were analysed using the non-parametric statistic Kruskal–Wallis test. If the overall test was significant then Dunn’s multiple comparison tests were used to identify significant differences among pair comparisons. The same statistical analysis was applied when comparing P. falciparum cultures exposed to DHA alone versus DHA in combination with Hsp90 inhibitors. […] The statistical analyses were performed with the software Prism v6 (GraphPad Software, San Diego, CA).

[2] = system: P. falciparum chloroquine resistant W2; assay: Growth inhibition assay (SYBR Green I), W2; conditions: W2, 72 h; for IC50: synchronized ring culture
Description: (§5) A 50% suspension of non-infected O positive erythrocytes was added every 2 days to adjust haematocrit to 5%. Parasite cultures were maintained at 37 °C in 5% O2 and 5% CO2 atmosphere with daily changes of culture media.
(§6) A synchronized P. falciparum culture, with over 80% ring forms, was used in the growth inhibition assay. […] A 190 μL aliquot of parasite culture was dispensed per well to microplates that were pre-dispensed with the compounds at various dilutions. […] Dilutions of Hsp90 inhibitors and DHA were prepared in water with a final concentration of DMSO below 0.05% (v/v).
(§7) The microplates were incubated at 37 °C in a controlled atmosphere (5% O2, 5% CO2 Nitrogen balanced) for 72 h. After incubation, the plates were subject to a freeze–thaw cycle (−80 °C) and the parasite growth was quantified by the SYBR Green I method as previously described [33]. Briefly, 100 µL of homogenized parasite culture was transferred into 96-well black plates. […] The plates were incubated at room temperature in darkness for 1 h.
(§8) Growth inhibition experiments were conducted at least three times per compound (biological replicates, n ≥ 3). The IC50 differences for each inhibitor between the two P. falciparum strains were compared with a t test.

P. falciparum 3D7 [3] = assay: Parasite stage specific effect, 3D7; assay type: cell-based, Plasmodium falciparum; conditions: 3D7, 24 h; 17-DMAG 1.2 µM, NVP-AUY922 0.72 µM
Description: (§2) Synchronized P. falciparum cultures were used to determine the susceptibility of different parasite stages to Hsp90 inhibitors. Three synchronized cultures per strain, with a majority of the parasites in the ring (0–26 h post red blood cell infection), trophozoite (26–38 h) or schizont (38–48 h) stages respectively (Fig. 3). […] The cultures were exposed to one concentration of the Hsp90 inhibitor for 24 h. […] For each three exposed the cultures and the control for both strains 3D7 and W2, the parasitaemia and the developmental stage of the parasites were recorded. Before and after drug exposure, Giemsa-stained blood smears were scored by microscopy examination counting 100 infected erythrocytes per culture, and the proportion of each developmental stage was calculated.

[4] = system: P. falciparum chloroquine sensitive 3D7; assay: Growth inhibition assay (SYBR Green I), 3D7; conditions: 3D7, 72 h; for IC50: synchronized ring culture
Description: as §5, §6, §7, §8

P. falciparum W2 [5] = assay: Parasite stage specific effect, W2; assay type: cell-based, Plasmodium falciparum; conditions: W2, 24 h; 17-DMAG 1.2 µM, NVP-AUY922 0.72 µM
Description: as §2

[6] = mouse, in vivo; cited from earlier work
P. falciparum 3D7 [7] = assay: Recrudescence assay, 3D7; assay type: cell-based, Plasmodium falciparum; conditions: for recovery time in combination with DHA vs DHA alone: 3D7, 48 h, two concentrations plus DHA 100 nM; for delay of culture recovery vs untreated control (cytocidal activity): 3D7, 48 h exposure, 17-AAG 1.5-6 µM, 17-DMAG 0.3-1.2 µM, NVP-AUY922 0.18-0.72 µM
Description: as §1

P. falciparum Grp94 = P. falciparum Grp94 (Plasmodium falciparum, UniProt Q8I0V4); assay: biochemical; assay type: binding
Sequence of P. falciparum Grp94 (Q8I0V4 entry or part of it): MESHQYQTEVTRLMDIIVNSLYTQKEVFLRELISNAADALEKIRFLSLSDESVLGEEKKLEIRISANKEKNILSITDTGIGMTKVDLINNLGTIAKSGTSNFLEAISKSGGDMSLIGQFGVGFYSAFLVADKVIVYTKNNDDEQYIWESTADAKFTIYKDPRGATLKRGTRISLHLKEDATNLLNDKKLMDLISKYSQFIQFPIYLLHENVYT
Description: (§3) Full-length human recombinant HSP90α was purchased (Cayman Chemicals, MI), while the malaria recombinant parasite proteins were generated according to the following protocol. […] Growth at 37 °C continued until the OD600 reached ~1.0, whereupon the temperature was lowered to 18 °C and protein expression was induced by the addition of 1 mM isopropyl β-D-thiogalactopyranoside (IPTG). Overnight post-induction cells were collected by centrifugation and resuspended in binding buffer [50 mM Hepes pH 7.5, 500 mM NaCl, 1 mM benzamidine, and 1 mM phenylmethanesulfonyl fluoride (PMSF)]. The cells were lysed by adding chemical lysis buffer (2% CHAPS, 0.1 mg/mL lysozyme and 0.5 U/mL benzonase), the lysate was clarified by centrifugation. The supernatant was loaded on to a nickel-nitrilotriacetic acid column pre-equilibrated with binding buffer (50 mM Hepes pH 7.5, 500 mM NaCl). Following a wash step with binding buffer containing 5 mM imidazole, the bound protein was eluted with elution buffer (50 mM Hepes pH 7.5, 500 mM NaCl, 250 mM imidazole). The eluate was then loaded on to a 16/60 Superdex 200 size exclusion column pre-equilibrated with 50 mM Hepes pH 7.5 and 500 mM NaCl. Target protein-containing fractions were pooled and concentrated using centrifugal filter units (Amicon). The final protein products and samples for different steps in the purification procedures were evaluated in SDS-Page gels.
(§4) SPR measurements were performed on Biacore T200 instrument (GE Healthcare) at 25 °C. Purified P. falciparum Hsp90 and PfGRP94 N-terminal domain, and full-length human Hsp90α were immobilized on a CM5 sensorchip using NHS/EDC coupling following the manufacturer protocol to a level of <10,000 RUs, a reference surfaces without immobilized proteins served as a control for nonspecific binding and refractive index changes. Seven different concentrations of the ligands between 0.4 nM and 1 mM, were injected in triplicate over the sensor chip at 30 μL/min in random order. The running buffer was 10 mM HEPES, pH 7.4, 150 mM NaCl, 0.005% P20, 1% DMSO and 2 mM MgCl2. Buffer alone injections were used as blanks. The sensor surface was regenerated between injections with a short injection of a buffer 10 mM HEPES, pH 7.4, 150 mM NaCl, 0.005% P20 and 3 mM EDTA. The Biacore responses recorded during the 30 s of the injection were used to estimate the association constant (k on) and the 300 s after the injection were used to estimate the dissociation constant (k off). All kinetic constants were estimated using double subtracted sensorgrams using BiaEvaluation Software (GE Healthcare), the kinetic constants were used to calculate the dissociation constant (K d).

P. falciparum Hsp90 = P. falciparum Hsp90 (Plasmodium falciparum, UniProt Q8IC05); assay: biochemical; assay type: binding
Sequence of P. falciparum Hsp90 (Q8IC05 entry or part of it): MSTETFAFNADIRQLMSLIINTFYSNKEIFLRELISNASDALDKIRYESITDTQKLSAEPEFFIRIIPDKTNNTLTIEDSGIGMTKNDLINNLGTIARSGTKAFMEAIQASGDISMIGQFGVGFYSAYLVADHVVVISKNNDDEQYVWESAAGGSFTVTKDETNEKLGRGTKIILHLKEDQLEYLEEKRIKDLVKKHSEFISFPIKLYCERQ
Description: as §3, §4

[8] = system: Primary normal human lung fibroblasts (NHLFs); assay: Drug cytotoxicity assay (MTT); conditions: 24 h; for IC50: Homo sapiens, Fibroblast, read-out: IC50 against human cells
Description: Primary normal human lung fibroblasts (NHLFs) were seeded on 24-well plates and cultured in FGM-2 media (LONZA, Basel, Switzerland) until they reached 80% confluency. […] Briefly, 50 µL of MTT dye was added into the media and the cells were returned to the incubator for 3 h. Then 500 µL of solubilization solution was added to dissolve the MTT formazan crystals. […] The drug cytotoxicity assay was performed in triplicate.

human Hsp90α = target: T1, human Hsp90α (Homo sapiens, UniProt P07900); assay: Biacore SPR analysis, full-length human Hsp90α; assay type: binding; conditions: SPR, 25 °C
T1 construct: Full-length human recombinant HSP90α was purchased; purchased Cayman Chemicals, MI
Description: as §3
as §4, with “Seven different concentrations of the ligands between 0.4 nM and 1 mM, were injected in triplicate over the sensor chip at 30 μL/min in random order.” left out

[9] = parameters: method as in PMID 18020435; conditions: mice, 50 mg/kg; read-out: Cmax in plasma; cited from earlier work
[10] = SPR, 25 °C, calculated from kinetic constants, read-out: Kd

Structure (SMILES): CO[C@H]1/C=C\C=C(/C)C(=O)NC2=CC(=O)C(NCCN(C)C)=C(C[C@@H](C)C[C@H](OC)[C@H](O)[C@@H](C)/C=C(\C)[C@@H]1OC(N)=O)C2=O [17-DMAG, 17-(dimethylaminoethylamino)-17-demethoxygeldanamycin]
- recovery time in combination with DHA vs DHA alone (P. falciparum W2 [1]): not significantly more toxic to W2
- delay of culture recovery vs untreated control (cytocidal activity) (P. falciparum W2 [1]): only significantly different from the control parasite cultures when assayed at a concentration ~8 times its average IC50; also recorded: strong cytotoxic activities
- IC90 ([2]; Plasmodium falciparum): 542 nM
- IC50 ([2]; Plasmodium falciparum): 169 nM
- IC50 [2]: 170 nM
- effect against all parasite stages (ring, trophozoite, schizont) (P. falciparum 3D7 [3]): effective against all parasite stages
- IC50 [4]: 118 nM
- IC90 ([4]; Plasmodium falciparum): 287 nM
- IC50 ([4]; Plasmodium falciparum): 118 nM
- effect against all parasite stages (ring, trophozoite, schizont) (P. falciparum W2 [5]): effective against all parasite stages
- tolerability [6]: well tolerated without any visible side effects
- recovery time in combination with DHA vs DHA alone (P. falciparum 3D7 [7]): more effective in combination against P. falciparum 3D7 but only at one of the lowest concentrations
- delay of culture recovery vs untreated control (cytocidal activity) (P. falciparum 3D7 [7]): only significantly different from the control parasite cultures when assayed at a concentration ~8 times its average IC50; also recorded: strong cytotoxic activities
- ka (P. falciparum Grp94; SPR, 25 °C): 53,000 1/Ms
- kd (P. falciparum Grp94; SPR, 25 °C): 0.001 s⁻¹
- Kd (P. falciparum Grp94; [10]): 23 nM
- ka (P. falciparum Hsp90; SPR, 25 °C): 208,000 1/Ms
- kd (P. falciparum Hsp90; SPR, 25 °C): 0.001 s⁻¹
- Kd (P. falciparum Hsp90; [10]): 8 nM
- Kd (P. falciparum Hsp90; read-out: Kd against the parasite chaperone): 8.23 nM
- IC50 [8]: > 10000 nM
- growth inhibition for the human cells ([8]; NHLF, 0.5 to 10 µM): ≤ 25%
- growth of host cells compared to no drug controls ([8]; NHLF, 0.5 to 10 µM, t test): only the highest concentration (10 µM) was significantly different from the controls
- kd (human Hsp90α): 0.007 s⁻¹

- IC90 ([2]; Plasmodium falciparum): 1.8 nM
- IC50 ([2]; Plasmodium falciparum): 0.5 nM
- IC90 ([4]; Plasmodium falciparum): 5.2 nM
- IC50 ([4]; Plasmodium falciparum): 1.2 nM
Structure (SMILES): C[C@H]1[C@@H](O)O[C@@H]2O[C@@]3(C)CC[C@H]4[C@H](C)CC[C@@H]1[C@@]24OO3 [DHA, dihydroartemisinin]
- days to recover to 10% parasitaemia (median) (P. falciparum W2 [1]; W2, 100 nM for 48 h): 13 days
- days to recover to 10% parasitaemia (median) (P. falciparum 3D7 [7]; 3D7, 100 nM for 48 h): 12 days

Structure (SMILES): CCNC(=O)c1noc(-c2cc(C(C)C)c(O)cc2O)c1-c1ccc(CN2CCOCC2)cc1 [NVP-AUY922]
- recovery time in combination with DHA vs DHA alone (P. falciparum W2 [1]): only significant in the case of P. falciparum W2
- delay of culture recovery vs untreated control (cytocidal activity) (P. falciparum W2 [1]): (0.36 and 0.72 µM) significantly delayed the parasite recovery; also recorded: strong cytotoxic activities
- Cmax [9]: 35 µM
- IC90 ([2]; Plasmodium falciparum): 460 nM
- IC50 ([2]; Plasmodium falciparum): ~75 nM
- IC50 [2]: 75.4 nM
- effect against all parasite stages (ring, trophozoite, schizont) (P. falciparum 3D7 [3]): effective against all parasite stages
- IC50 [4]: 75.5 nM
- IC90 ([4]; Plasmodium falciparum): 646 nM
- IC50 ([4]; Plasmodium falciparum): ~75 nM
- effect against all parasite stages (ring, trophozoite, schizont) (P. falciparum W2 [5]): effective against all parasite stages
- recovery time in combination with DHA vs DHA alone (P. falciparum 3D7 [7]): increase in the time required to reach 10% parasitaemia
- delay of culture recovery vs untreated control (cytocidal activity) (P. falciparum 3D7 [7]): (0.36 and 0.72 µM) significantly delayed the parasite recovery; also recorded: strong cytotoxic activities
- Kd (P. falciparum Grp94): 9 nM
- ka (P. falciparum Grp94): 438,000 1/Ms
- kd (P. falciparum Grp94): 0.004 s⁻¹
- ka (P. falciparum Hsp90): 107,000 1/Ms
- kd (P. falciparum Hsp90): 0.001 s⁻¹
- Kd (P. falciparum Hsp90; Kd): 13 nM
- Kd (P. falciparum Hsp90; Kd against the parasite chaperone): 13.2 nM
- IC50 [8]: > 10000 nM
- growth inhibition for the human cells ([8]; NHLF, 0.5 to 10 µM): ≤ 25%
